# Where two headings read alike, the source gives them in different places.
# Assays:
# rice blast = experiment: microbe, parasite or virus in culture; assay type: cell-based; conditions: Pyricularia oryzae; for inhibition at 0.03 µg/mL: read-out: the inhibition rate against rice blast (%) 0.03 mg/L; for inhibition at 0.1 µg/mL: read-out: the inhibition rate against rice blast (%) 0.1 mg/L; for inhibition at 0.3 µg/mL: read-out: the inhibition rate against rice blast (%) 0.3 mg/L; for inhibition at 25 µg/mL: read-out: inhibition rate against rice blast
# cucumber gray mold = experiment: Activity in vitro (96-well, High Through Put): inhibition rate against cucumber gray mold; assay type: cell-based; conditions: for inhibition at 0.3 µg/mL: 0.3 mg/L; for inhibition at 0.9 µg/mL: 0.9 mg/L; for inhibition at 8.3 µg/mL: 8.3 mg/L; for inhibition at 25 µg/mL: dose 25 mg/L
# Summary of the method: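 Compound in acetone, methanol or DMF was combined with pathogen suspension under sterile conditions and held in a constant-temperature box. After 24 hours germination or growth was scored by eye against an untreated control to give the inhibition rate.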
# cucumber downy mildew = experiment: Protectant activity in vivo (whole plant) against cucumber downy mildew; conditions: Cucumis sativus, 168 h; for pest or weed control at 12.5 µg/mL: 12.5 mg/L; for pest or weed control at 400 µg/mL: dose 400 mg/L
# Summary of the method: (§1)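 Compound stock in organic solvent (≤5% v/v) diluted in water with 0.1% Tween-80 and sprayed onto whole host plants. Fungal inoculation 24 h later; humidity chamber then greenhouse as the pathogen requires. Activity rated visually, usually after 7 days.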
# corn rust = experiment: Protectant activity in vivo (whole plant) against corn rust; conditions: Zea mays, 168 h; for pest or weed control at 6.25 µg/mL: 6.25 mg/L; for pest or weed control at 25 µg/mL: 25 mg/L; for pest or weed control at 100 µg/mL: 100 mg/L
# Summary of the method: as §1
# wheat powdery mildew = experiment: Protectant activity in vivo (whole plant) against wheat powdery mildew; conditions: Triticum aestivum, 168 h; for pest or weed control at 400 µg/mL: dose 400 mg/L
# Experimental: The method is as followed: The whole plant is used in this test. The compound is dissolved in a proper solvent to get mother solution. The proper solvent is selected from acetone, methanol, DMF and so on according to their dissolving capability to the sample. The volume rate of solvent and testing solution (v/v) is equal to or less than 5%. The mother solution is diluted with water containing 0.1% tween-80 to get the testing solution whose concentration is designed. The testing solution is sprayed to the host plant by a special plant sprayer. The plant is inoculated with fungus after 24 hours. According to the infecting characteristic of fungus, the plant is stored in a humidity chamber and then transferred into greenhouse after infection is finished. And the other plants are placed in greenhouse directly. The activity of compound is obtained by eyeballing after 7 days in common.
# plasmopora viticola = conditions: at high dose; cited from earlier work
# blast of rice = conditions: at 500 ppm; cited from earlier work
# canker of citrus fruit = conditions: at 500 ppm; cited from earlier work
# [1] = read-out: the inhibition rate against cucumber gray mold (%)
# [2] = 2.8 mg/L, read-out: the inhibition rate against cucumber gray mold (%)
# [3] = 25 mg/L, read-out: the protectant activity (%) against cucumber downy mildew
# [4] = 50 mg/L, read-out: the protectant activity (%) against cucumber downy mildew
# [5] = 100 mg/L, read-out: the protectant activity (%) against cucumber downy mildew
# [6] = dose 25 mg/L, read-out: protectant activity against cucumber downy mildew in vivo
# [7] = dose 50 mg/L, read-out: protectant activity against cucumber downy mildew in vivo
# [8] = dose 100 mg/L, read-out: protectant activity against cucumber downy mildew in vivo
# [9] = 400 mg/L, read-out: the protectant activity (%) against corn rust
# [10] = dose 400 mg/L, read-out: protectant activity against corn rust in vivo
compound,measurement,setting,value
N#Cc1c(Cl)c(Cl)c(C#N)c(Nc2ccccc2)c1Cl [KC15],inhibition at 0.03 µg/mL,rice blast,0%
same,inhibition at 0.1 µg/mL,rice blast,0%
same,inhibition at 0.3 µg/mL,rice blast,0%
same,inhibition at 0.3 µg/mL,cucumber gray mold,0%
same,inhibition at 0.9 µg/mL,cucumber gray mold; [1],0%
same,inhibition at 2.8 µg/mL,cucumber gray mold; [2],0%
same,inhibition at 8.3 µg/mL,cucumber gray mold; [1],0%
same,inhibition at 25 µg/mL,cucumber gray mold; in vitro,0%
same,pest or weed control at 12.5 µg/mL,cucumber downy mildew,0%
same,pest or weed control at 25 µg/mL,cucumber downy mildew; [3],0%
same,pest or weed control at 50 µg/mL,cucumber downy mildew; [4],10%
same,pest or weed control at 100 µg/mL,cucumber downy mildew; [5],20%
same,pest or weed control at 25 µg/mL,cucumber downy mildew; [6],0%
same,pest or weed control at 50 µg/mL,cucumber downy mildew; [7],10%
same,pest or weed control at 100 µg/mL,cucumber downy mildew; [8],20%
same,pest or weed control at 6.25 µg/mL,corn rust,0%
same,pest or weed control at 25 µg/mL,corn rust,0%
same,pest or weed control at 100 µg/mL,corn rust,0%
same,pest or weed control at 400 µg/mL,corn rust; [9],0%
same,pest or weed control at 400 µg/mL,corn rust; [10],0%
same,pest or weed control at 400 µg/mL,wheat powdery mildew,0%
same,activity on relevant diseases such as plasmopora viticola,plasmopora viticola,some activity
N#Cc1c(F)c(Cl)c(Nc2ccc([N+](=O)[O-])cc2)c(C#N)c1F [KC22],inhibition at 25 µg/mL,rice blast,0%
same,inhibition at 0.03 µg/mL,rice blast,0%
same,inhibition at 0.1 µg/mL,rice blast,0%
same,inhibition at 0.3 µg/mL,rice blast,0%
same,inhibition at 0.3 µg/mL,cucumber gray mold,0%
same,inhibition at 0.9 µg/mL,cucumber gray mold; [1],0%
same,inhibition at 2.8 µg/mL,cucumber gray mold; [2],0%
same,inhibition at 8.3 µg/mL,cucumber gray mold; [1],0%
same,inhibition at 25 µg/mL,cucumber gray mold; in vitro,0%
same,pest or weed control at 12.5 µg/mL,cucumber downy mildew,0%
same,pest or weed control at 25 µg/mL,cucumber downy mildew; [3],0%
same,pest or weed control at 50 µg/mL,cucumber downy mildew; [4],0%
same,pest or weed control at 100 µg/mL,cucumber downy mildew; [5],0%
same,pest or weed control at 400 µg/mL,cucumber downy mildew,0%
same,pest or weed control at 25 µg/mL,corn rust,0%
same,pest or weed control at 100 µg/mL,corn rust,0%
same,pest or weed control at 400 µg/mL,corn rust; [9],0%
same,pest or weed control at 400 µg/mL,corn rust; [10],0%
same,pest or weed control at 400 µg/mL,wheat powdery mildew,0%
N#Cc1c(F)c(F)c(Nc2ccc(Cl)c(Cl)c2)c(C#N)c1F [KC12],inhibition at 25 µg/mL,rice blast,0%
same,inhibition at 0.03 µg/mL,rice blast,0%
same,inhibition at 0.1 µg/mL,rice blast,0%
same,inhibition at 0.3 µg/mL,rice blast,0%
same,inhibition at 0.3 µg/mL,cucumber gray mold,0%
same,inhibition at 0.9 µg/mL,cucumber gray mold; [1],0%
same,inhibition at 2.8 µg/mL,cucumber gray mold; [2],0%
same,inhibition at 8.3 µg/mL,cucumber gray mold; [1],80%
same,inhibition at 2.8 µg/mL,"cucumber gray mold; in vitro, dose 2.8 mg/L, read-out: inhibition rate against cucumber gray mold",0%
same,pest or weed control at 12.5 µg/mL,cucumber downy mildew,0%
same,pest or weed control at 25 µg/mL,cucumber downy mildew; [3],0%
same,pest or weed control at 50 µg/mL,cucumber downy mildew; [4],0%
same,pest or weed control at 100 µg/mL,cucumber downy mildew; [5],0%
same,pest or weed control at 100 µg/mL,cucumber downy mildew; [8],20%
same,pest or weed control at 6.25 µg/mL,corn rust,0%
same,pest or weed control at 25 µg/mL,corn rust,0%
same,pest or weed control at 100 µg/mL,corn rust,0%
same,pest or weed control at 400 µg/mL,corn rust; [9],0%
same,pest or weed control at 400 µg/mL,corn rust; [10],0%
same,pest or weed control at 400 µg/mL,wheat powdery mildew,0%
same,bacteriostatic diameter against blast of rice,blast of rice,15.5 mm
same,bacteriostatic diameter against canker of citrus fruit,canker of citrus fruit,0 mm
N#Cc1c(Cl)c(Cl)c(Nc2ccccc2)c(Cl)c1C#N [KC14],inhibition at 0.03 µg/mL,rice blast,0%
same,inhibition at 0.1 µg/mL,rice blast,0%
same,inhibition at 0.3 µg/mL,rice blast,0%
same,inhibition at 0.3 µg/mL,cucumber gray mold,0%
same,inhibition at 0.9 µg/mL,cucumber gray mold; [1],0%
same,inhibition at 2.8 µg/mL,cucumber gray mold; [2],0%
same,inhibition at 8.3 µg/mL,cucumber gray mold; [1],0%
same,inhibition at 25 µg/mL,cucumber gray mold; in vitro,0%
same,pest or weed control at 12.5 µg/mL,cucumber downy mildew,0%
same,pest or weed control at 25 µg/mL,cucumber downy mildew; [3],0%
same,pest or weed control at 50 µg/mL,cucumber downy mildew; [4],0%
same,pest or weed control at 100 µg/mL,cucumber downy mildew; [5],0%
same,pest or weed control at 100 µg/mL,cucumber downy mildew; [8],0%
same,pest or weed control at 6.25 µg/mL,corn rust,0%
same,pest or weed control at 25 µg/mL,corn rust,0%
same,pest or weed control at 100 µg/mL,corn rust,0%
same,pest or weed control at 400 µg/mL,corn rust; [9],0%
same,pest or weed control at 400 µg/mL,corn rust; [10],0%
same,pest or weed control at 100 µg/mL,wheat powdery mildew; dose 100 mg/L,0%
same,pest or weed control at 400 µg/mL,wheat powdery mildew,30%
same,activity on relevant diseases such as plasmopora viticola,plasmopora viticola,some activity
N#Cc1c(Cl)c(Cl)c(C#N)c(Cl)c1Cl [STM-1],inhibition at 25 µg/mL,rice blast,0%
same,inhibition at 0.03 µg/mL,rice blast,0%
same,inhibition at 0.1 µg/mL,rice blast,0%
same,inhibition at 0.3 µg/mL,rice blast,0%
same,inhibition at 0.3 µg/mL,cucumber gray mold,0%
same,inhibition at 0.9 µg/mL,cucumber gray mold; [1],0%
same,inhibition at 2.8 µg/mL,cucumber gray mold; [2],0%
same,inhibition at 8.3 µg/mL,cucumber gray mold; [1],0%
same,inhibition at 25 µg/mL,cucumber gray mold; in vitro,0%
same,pest or weed control at 12.5 µg/mL,cucumber downy mildew,0%
same,pest or weed control at 25 µg/mL,cucumber downy mildew; [3],0%
same,pest or weed control at 50 µg/mL,cucumber downy mildew; [4],0%
same,pest or weed control at 100 µg/mL,cucumber downy mildew; [5],0%
same,pest or weed control at 400 µg/mL,cucumber downy mildew,0%
same,pest or weed control at 6.25 µg/mL,corn rust,0%
same,pest or weed control at 25 µg/mL,corn rust,0%
same,pest or weed control at 100 µg/mL,corn rust,0%
same,pest or weed control at 400 µg/mL,corn rust; [9],0%
same,pest or weed control at 400 µg/mL,corn rust; [10],0%
same,pest or weed control at 400 µg/mL,wheat powdery mildew,0%
N#Cc1ccc(Nc2c(Cl)c(F)c(C#N)c(F)c2C#N)cc1 [KC21],inhibition at 25 µg/mL,rice blast,0%
same,inhibition at 0.03 µg/mL,rice blast,0%
same,inhibition at 0.1 µg/mL,rice blast,0%
same,inhibition at 0.3 µg/mL,rice blast,0%
same,inhibition at 0.3 µg/mL,cucumber gray mold,0%
same,inhibition at 0.9 µg/mL,cucumber gray mold; [1],0%
same,inhibition at 2.8 µg/mL,cucumber gray mold; [2],0%
same,inhibition at 8.3 µg/mL,cucumber gray mold; [1],0%
same,inhibition at 25 µg/mL,cucumber gray mold; in vitro,0%
same,pest or weed control at 100 µg/mL,cucumber downy mildew; [5],70%
same,pest or weed control at 400 µg/mL,corn rust; [9],80%
same,pest or weed control at 400 µg/mL,wheat powdery mildew,0%
N#Cc1c(Cl)c(Cl)c(Nc2ccc([N+](=O)[O-])cc2)c(C#N)c1Cl [KC5],inhibition at 0.03 µg/mL,rice blast,0%
same,inhibition at 0.1 µg/mL,rice blast,0%
same,inhibition at 0.3 µg/mL,rice blast,0%
same,inhibition at 0.3 µg/mL,cucumber gray mold,0%
same,inhibition at 0.9 µg/mL,cucumber gray mold; [1],0%
same,inhibition at 25 µg/mL,cucumber gray mold; in vitro,0%
same,pest or weed control at 12.5 µg/mL,cucumber downy mildew,0%
same,pest or weed control at 25 µg/mL,cucumber downy mildew; [3],0%
same,pest or weed control at 25 µg/mL,cucumber downy mildew; [6],0%
same,pest or weed control at 50 µg/mL,cucumber downy mildew; [7],20%
same,pest or weed control at 6.25 µg/mL,corn rust,0%
same,pest or weed control at 25 µg/mL,corn rust,0%
same,pest or weed control at 400 µg/mL,corn rust; [10],0%
same,pest or weed control at 400 µg/mL,wheat powdery mildew,0%
Cc1ccc(Nc2c(Cl)c(Cl)c(C#N)c(Cl)c2C#N)cc1 [KC3],inhibition at 25 µg/mL,rice blast,0%
same,inhibition at 0.03 µg/mL,rice blast,0%
same,inhibition at 0.1 µg/mL,rice blast,0%
same,inhibition at 0.3 µg/mL,rice blast,0%
same,inhibition at 0.3 µg/mL,cucumber gray mold,0%
same,inhibition at 0.9 µg/mL,cucumber gray mold; [1],0%
same,inhibition at 2.8 µg/mL,cucumber gray mold; [2],0%
same,inhibition at 8.3 µg/mL,cucumber gray mold; [1],0%
same,inhibition at 25 µg/mL,cucumber gray mold; in vitro,0%
same,pest or weed control at 12.5 µg/mL,cucumber downy mildew,0%
same,pest or weed control at 25 µg/mL,cucumber downy mildew; [3],0%
same,pest or weed control at 50 µg/mL,cucumber downy mildew; [4],0%
same,pest or weed control at 100 µg/mL,cucumber downy mildew; [5],0%
same,pest or weed control at 400 µg/mL,cucumber downy mildew,0%
same,pest or weed control at 6.25 µg/mL,corn rust,0%
same,pest or weed control at 25 µg/mL,corn rust,0%
same,pest or weed control at 100 µg/mL,corn rust,0%
same,pest or weed control at 400 µg/mL,corn rust; [9],0%
same,pest or weed control at 400 µg/mL,corn rust; [10],0%
same,pest or weed control at 400 µg/mL,wheat powdery mildew,0%

# Source: patent publication US8937072B2, “Substituted cyanoaniline compounds, preparation and use thereof” (Sinochem Corporation, priority 2011, dated 2015)
